By IC50 is commonly meant the midpoint of a concentration-inhibition curve. The low end stands for higher potency, the high end for lower potency.

Assay [1] is described as follows: Cytotoxicity against human HL60/A cells after 72 hrs by MTT assay. The format is functional, cell-based.
For a further assay, the system named is HL-60. The assay can be described thus: Cytotoxicity against human HL60 cells after 72 hrs by MTT assay. It counts as functional, cell-based. The conditions noted are these: HL-60, 72 h. (Tetrazolium dyes change colour on reduction, which living cells bring about.)
Assay [2] in a line: Induction of apoptosis in human HL60/A cells assessed as early apoptotic cells at 10 uM after 24 hrs by annexin V/propidium iodide based flow cytometry (reference value: 2.66 %). The format is functional. A general note: A flow cytometer gives signals particle by particle.
Assay [3] in a line: Induction of apoptosis in human HL60/A cells assessed as viable cells at 20 uM after 24 hrs by annexin V/propidium iodide based flow cytometry (reference value: 95.2 %). The format is functional. The conditions noted are these: read-out: Activity.
A short description of assay [4]: Induction of apoptosis in human HL60/A cells assessed as necrotic cells at 10 uM after 24 hrs by annexin V/propidium iodide based flow cytometry (reference value: 0.282 %). It counts as functional.
A short description of assay [5]: Induction of apoptosis in human HL60/A cells assessed as late apoptotic cells at 50 uM after 24 hrs by annexin V/propidium iodide based flow cytometry (reference value: 1.82 %). It counts as functional.
Assay [6] in a line: Induction of apoptosis in human HL60/A cells assessed as early apoptotic cells at 50 uM after 24 hrs by annexin V/propidium iodide based flow cytometry (reference value: 2.66 %). The format is functional.
The nature of assay [7]: Induction of apoptosis in human HL60/A cells assessed as necrotic cells at 20 uM after 24 hrs by annexin V/propidium iodide based flow cytometry (reference value: 0.282 %). It counts as functional.
A short description of assay [8]: Induction of apoptosis in human HL60/A cells assessed as early apoptotic cells at 20 uM after 24 hrs by annexin V/propidium iodide based flow cytometry (reference value: 2.66 %). The format is functional.
Assay [9] is described as follows: Induction of apoptosis in human HL60/A cells assessed as necrotic cells at 50 uM after 24 hrs by annexin V/propidium iodide based flow cytometry (reference value: 0.282 %). It counts as functional.
Assay [10] in a line: Induction of apoptosis in human HL60/A cells assessed as viable cells at 10 uM after 24 hrs by annexin V/propidium iodide based flow cytometry (reference value: 95.2 %). The format is functional. Particulars: read-out: Activity.
The nature of assay [11]: Induction of apoptosis in human HL60/A cells assessed as viable cells at 50 uM after 24 hrs by annexin V/propidium iodide based flow cytometry (reference value: 95.2 %). Particulars: read-out: Activity. The format is functional.
Assay [12] in a line: Induction of apoptosis in human HL60/A cells assessed as late apoptotic cells at 10 uM after 24 hrs by annexin V/propidium iodide based flow cytometry (reference value: 1.82 %). The format is functional.
The nature of assay [13]: Induction of apoptosis in human HL60/A cells assessed as late apoptotic cells at 20 uM after 24 hrs by annexin V/propidium iodide based flow cytometry (reference value: 1.82 %). The format is functional.

As for `C=C1CC[C@H]2C(=C)CC[C@H]3/C(=C\c4ccccc4)C(=O)O[C@@H]3[C@@H]12`, the IC50 (in assay [1]; in the assay with HL-60) was greater than 50 µM throughout.
With `CC[Si](CC)(CC)O[C@]1(C)CCC2=C(C)CC[C@H]3/C(=C/c4ccc(F)cc4)C(=O)O[C@@H]3[C@H]21`, the IC50 (in assay [1]; with HL-60) was greater than 50 µM throughout.
For the molecule `CC[Si](CC)(CC)O[C@]1(C)CCC2=C(C)CC[C@H]3/C(=C/c4cccc(F)c4)C(=O)O[C@@H]3[C@H]21`, the figures for the IC50 (in [1]; with HL-60) were 10 µM and 52 µM, respectively.
For `C=C1CC[C@H]2C(=C)CC[C@H]3/C(=C/c4ccccc4F)C(=O)O[C@@H]3[C@@H]12`, in that order: greater than 50 µM and greater than 50 µM.
For `C=C1CC[C@H]2C(=C)CC[C@H]3/C(=C\c4ccc(CC)cc4)C(=O)O[C@@H]3[C@@H]12`, in that order: greater than 50 µM and greater than 50 µM.
For `CC[Si](CC)(CC)O[C@]1(C)CCC2=C(C)CC[C@H]3/C(=C\c4ccc(F)cc4)C(=O)O[C@@H]3[C@H]21`, in that order: greater than 50 µM and greater than 50 µM.
On to `CC[Si](CC)(CC)O[C@]1(C)CCC2=C(C)CC[C@H]3/C(=C\c4ccccc4F)C(=O)O[C@@H]3[C@H]21`, for which the concentration for half-maximal inhibition (IC50) (in assay [1]; in the assay on HL-60) was greater than 50 µM throughout.
On to `CC[Si](CC)(CC)O[C@]1(C)CCC2=C(C)CC[C@H]3/C(=C/c4ccccc4F)C(=O)O[C@@H]3[C@H]21`, for which the figures for the IC50 (in assay [1]; in the assay with HL-60) were 7.8 µM and 32 µM, respectively.
The corresponding values for `CC1=C2CC[C@@](C)(O)[C@@H]2[C@H]2OC(=O)/C(=C\c3cccc(F)c3)[C@@H]2CC1` are greater than 50 µM and greater than 50 µM.
As to `CC[Si](CC)(CC)O[C@]1(C)CCC2=C(C)CC[C@H]3/C(=C/c4ccc(Cl)cc4)C(=O)O[C@@H]3[C@H]21`, the IC50 (in assay [1]; in the assay with HL-60) was greater than 50 µM in each case.
For `COc1cccc2c1C(=O)c1c(O)c3c(c(O)c1C2=O)C[C@@](O)(C(=O)CO)C[C@@H]3O[C@H]1C[C@H](N)[C@H](O)[C@H](C)O1` [DOXORUBICIN], the IC50 was found to be 7.8 µM in assay [1] and 0.07 µM in the assay on HL-60.
The corresponding values for `C=C1CC[C@H]2C(=C)CC[C@H]3/C(=C/c4cc(OC)c(OC)c(OC)c4)C(=O)O[C@@H]3[C@@H]12` are greater than 50 µM and greater than 50 µM.
The corresponding values for `CC[Si](CC)(CC)O[C@]1(C)CCC2=C(C)CC[C@H]3/C(=C\c4ccc(Cl)cc4)C(=O)O[C@@H]3[C@H]21` are greater than 50 µM and greater than 50 µM.
For `C=C1C(=O)O[C@H]2[C@H]1CCC(C)=C1CC[C@@](C)(O[Si](CC)(CC)CC)[C@@H]12`, in that order: 7.2 µM and 8.4 µM.
With `CC1=C2CC[C@@](C)(O)[C@@H]2[C@H]2OC(=O)/C(=C/c3ccc(Cl)cc3)[C@@H]2CC1`, the half-inhibitory concentration (IC50) (in assay [1]; with HL-60) was greater than 50 µM throughout.
Take `C=C1CC[C@H]2C(=C)CC[C@H]3/C(=C\c4ccc(F)cc4)C(=O)O[C@@H]3[C@@H]12`: the half-inhibitory concentration (IC50) (in assay [1]; in the assay with HL-60) was greater than 50 µM each time.
For `C=C1CC[C@H]2C(=C)CC[C@H]3/C(=C\c4cccc(C(F)(F)F)c4)C(=O)O[C@@H]3[C@@H]12`, the figures for the concentration for half-maximal inhibition (IC50) (in assay [1]; with HL-60) were 17 µM and 24 µM, respectively.
For `C=C1CC[C@H]2C(=C)CC[C@H]3/C(=C/c4ccc(CC)cc4)C(=O)O[C@@H]3[C@@H]12`, in that order: greater than 50 µM and greater than 50 µM.
For `CCc1ccc(/C=C2\C(=O)O[C@H]3[C@H]2CCC(C)=C2CC[C@@](C)(O)[C@@H]23)cc1`, in that order: greater than 50 µM and greater than 50 µM.
For `CCc1ccc(/C=C2/C(=O)O[C@H]3[C@H]2CCC(C)=C2CC[C@@](C)(O[Si](CC)(CC)CC)[C@@H]23)cc1`, in that order: 9.2 µM and 45 µM.
As for `C=C1CC[C@H]2C(=C)CC[C@H]3/C(=C/c4ccccc4)C(=O)O[C@@H]3[C@@H]12`, the half-inhibitory concentration (IC50) (in [1]; in the assay on HL-60) was greater than 50 µM throughout.
Turning to `C=C1CC[C@H]2C(=C)CC[C@H]3/C(=C\c4ccc(Cl)cc4)C(=O)O[C@@H]3[C@@H]12`, the 50% inhibitory concentration (IC50) (in [1]; in the assay with HL-60) was greater than 50 µM in each case.
Consider `CC1=C2CC[C@@](C)(O)[C@@H]2[C@H]2OC(=O)/C(=C\c3ccc(Cl)cc3)[C@@H]2CC1`, for which the half-inhibitory concentration (IC50) (in assay [1]; with HL-60) was greater than 50 µM each time.
As to `CC1=C2CC[C@@](C)(O)[C@@H]2[C@H]2OC(=O)/C(=C/c3ccc(F)cc3)[C@@H]2CC1`, the IC50 (in [1]; with HL-60) was greater than 50 µM each time.
As for `C=C1CC[C@H]2C(=C)CC[C@H]3/C(=C\c4ccccc4F)C(=O)O[C@@H]3[C@@H]12`, the 50% inhibitory concentration (IC50) (in assay [1]; with HL-60) was greater than 50 µM in each case.
Regarding `CC[Si](CC)(CC)O[C@]1(C)CCC2=C(C)CC[C@H]3/C(=C\c4cccc(F)c4)C(=O)O[C@@H]3[C@H]21`, the 50% inhibitory concentration (IC50) (in assay [1]; in the assay on HL-60) was greater than 50 µM in each case.
As to `CC1=C2CC[C@@](C)(O)[C@@H]2[C@H]2OC(=O)/C(=C\c3ccc(F)cc3)[C@@H]2CC1`, the half-inhibitory concentration (IC50) (in assay [1]; in the assay with HL-60) was greater than 50 µM throughout.
Take `CC1=C2CC[C@@](C)(O)[C@@H]2[C@H]2OC(=O)/C(=C/c3cccc(F)c3)[C@@H]2CC1`: the results for the IC50 (in assay [1]; in the assay with HL-60) were 32 µM and greater than 50 µM, respectively.
As to `CC1=C2CC[C@@](C)(O)[C@@H]2[C@H]2OC(=O)/C(=C\c3ccccc3F)[C@@H]2CC1`, the IC50 (in assay [1]; with HL-60) was greater than 50 µM throughout.
In the case of `CC1=C2CC[C@@](C)(O)[C@@H]2[C@H]2OC(=O)/C(=C/c3ccccc3F)[C@@H]2CC1`, the IC50 (in assay [1]; with HL-60) was greater than 50 µM each time.
As to `C=C1CC[C@H]2C(=C)CC[C@H]3/C(=C/c4cccc(C(F)(F)F)c4)C(=O)O[C@@H]3[C@@H]12`, the 50% inhibitory concentration (IC50) (in [1]; with HL-60) was greater than 50 µM each time.
`C=C1CC[C@H]2C(=C)CC[C@H]3/C(=C\c4cc(OC)c(OC)c(OC)c4)C(=O)O[C@@H]3[C@@H]12`: the 50% inhibitory concentration (IC50) (in assay [1]; with HL-60) was greater than 50 µM in each case.
As for `C=C1CC[C@H]2C(=C)CC[C@H]3/C(=C/c4ccc(F)cc4)C(=O)O[C@@H]3[C@@H]12`, the half-inhibitory concentration (IC50) (in assay [1]; in the assay on HL-60) was greater than 50 µM throughout.
As for `CCc1ccc(/C=C2/C(=O)O[C@H]3[C@H]2CCC(C)=C2CC[C@@](C)(O)[C@@H]23)cc1`, the IC50 in assay [1] was determined as 6.2 µM; in the assay on HL-60 it was 31 µM. Further, the Activity was 3.14% in assay [2]; 1.03% in assay [4]; 85.9% in assay [5]; 1.5% in [6]; 5.51% in assay [7]; 4.66% in assay [8]. For the same molecule, the Activity in assay [9] is reported as 11.7%; in assay [12] it was 6.61%; in [13], 23.8%. The viability at 20 µM in assay [3] was 66%. Also, the viability at 10 µM in assay [10] was 89.2%. Moreover, the viability at 50 µM in assay [11] came out at 0.94%.
As to `CCc1ccc(/C=C2\C(=O)O[C@H]3[C@H]2CCC(C)=C2CC[C@@](C)(O[Si](CC)(CC)CC)[C@@H]23)cc1`, the 50% inhibitory concentration (IC50) in assay [1] was 19 µM; in the assay on HL-60 it was greater than 50 µM.
For `C=C1CC[C@H]2C(=C)CC[C@H]3/C(=C/c4ccc(Cl)cc4)C(=O)O[C@@H]3[C@@H]12`, in that order: greater than 50 µM and greater than 50 µM.
